Values of other authors as cited in patent US20110086399A1, “RECOVERY OF STILBENOIDS” (FLUXOME SCIENCES A/S, priority 2008, published 2011).

Conditions: stated for comparison with the concentrations in the cell broth

## Oc1cc(O)cc(/C=C/c2ccccc2)c1 [pinosylvin]
  aqueous solubility: < 30 µg/mL
